Literature values, collected in patent US20220062479A1, “Disinfection Bomb” (priority 2020, published 2022).

What was measured:
[1] = test system: Streptococcus pyogenes; conditions: by way of background
[2] = test system: Pseudomonas aeruginosa; conditions: it has been shown
[3] = test system: E. coli; conditions: it has been shown
[4] = test system: Staphylococcus aureus; conditions: by way of background

SMILES: CCO [ethanol]
- contact time to kill Streptococcus pyogenes [1]: at least 10 seconds
- contact time that allows the ethanol to kill Pseudomonas aeruginosa [2]: 10 s
- contact time that allows the ethanol to kill E. coli [3]: 10 s
- contact time to kill Staphylococcus aureus [4]: at least 10 seconds
